In patent US12091402B2 (Avilar Therapeutics, Inc., priority 2021, dated 2024):
Where a SMILES comes first, the peptide text is derived from it. Bridges are numbered along the chain shown (N, C = ends). The star is where a group is joined. X5 = O=C(CCCCCn1cc(CCCC(=O)*)nn1)NC(COCc1cn(CCOCCOCCOCCOC[C@H]2OC[C@H](Nc3nccc(C(F)(F)F)n3)[C@@H](O)[C@H]2O)nn1)COCc1cn(CCOCCOCCOCCOC[C@H]2OC[C@H](Nc3nccc(C(F)(F)F)n3)[C@@H](O)[C@H]2O)nn1; PEG4 = NCCOCCOCCOCCOCCC(=O)O

Target: T1, ASGPR (Homo sapiens, UniProt P07306)
T1 sequence (P07306 1-291): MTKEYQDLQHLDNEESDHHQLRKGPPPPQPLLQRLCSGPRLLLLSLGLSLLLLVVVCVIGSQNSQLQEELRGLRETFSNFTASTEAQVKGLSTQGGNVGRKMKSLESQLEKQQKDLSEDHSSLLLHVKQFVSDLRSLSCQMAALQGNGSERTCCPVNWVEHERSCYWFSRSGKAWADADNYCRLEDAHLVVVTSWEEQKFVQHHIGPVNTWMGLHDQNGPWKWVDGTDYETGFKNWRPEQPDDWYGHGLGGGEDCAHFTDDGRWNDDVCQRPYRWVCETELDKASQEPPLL
Test: Affinity to ASGPR by surface plasmon resonance (SPR)

Row | Structure (SMILES) | Kd
1 | O=C(O)CC(=O)NC(COCCC(=O)NC[C@H]1OC[C@H](Nc2cncc(C(F)(F)F)n2)[C@@H](O)[C@H]1O)COCCC(=O)NC[C@H]1OC[C@H](Nc2cncc(C(F)(F)F)n2)[C@@H](O)[C@H]1O [A33, 3-((1,15-bis((2R,3R,4R,5S)-3,4-dihydroxy-5-((6-(trifluoromethyl)pyrazin-2-yl)amino)tetrahydro-2H-pyran-2-yl)-3,13-dioxo-6,10-dioxa-2,14-diazapentadecan-8-yl)amino)-3-oxopropanoic acid] | < 100 nM
2 | C[C@@H]1O[C@H](CO)[C@H](O)[C@H](O)[C@H]1Nc1nc(Cl)ns1 [A56, (2R,3R,4R,5R,6S)-5-((3-chloro-1,2,4-thiadiazol-5-yl)amino)-2-(hydroxymethyl)-6-methyltetrahydro-2H-pyran-3,4-diol] | 1000 to 10000 nM
3 | CC(C)C[C@@H]1NC(=O)[C@@H](NC(=O)[C@@H](NC(=O)[C@H](CCC(N)=O)NC(=O)[C@H](Cc2cnc[nH]2)NC(=O)CCOCCOCCOCCOCCNC(=O)CCCc2cn(CCCCCC(=O)NC(COCc3cn(CCOCCOCCOCCOC[C@H]4OC[C@H](Nc5nccc(C(F)(F)F)n5)[C@@H](O)[C@H]4O)nn3)COCc3cn(CCOCCOCCOCCOC[C@H]4OC[C@H](Nc5nccc(C(F)(F)F)n5)[C@@H](O)[C@H]4O)nn3)nn2)C(C)C)CSSC[C@@H](C(=O)N[C@@H](Cc2ccccc2)C(=O)N[C@@H](CO)C(=O)N[C@H](C(N)=O)[C@@H](C)O)NC(=O)[C@H](C(C)C)NC(=O)[C@@H]2CCCN2C(=O)[C@H](CCCNC(=N)N)NC(=O)CNC(=O)[C@H](CCCNC(=N)N)NC(=O)[C@H](Cc2ccc(O)cc2)NC(=O)[C@H](CO)NC1=O [Compound 57] ({X5-PEG4}-HQVCLSYRGRPVCFST-NH2; disulfide 4-13) | < 100 nM
4 | O=C(O)COCCOCCOCC(=O)NC(COCCC(=O)NCCOCCOCCOCCOC[C@H]1OC[C@H](Nc2cncc(C(F)(F)F)n2)[C@@H](O)[C@H]1O)COCCC(=O)NCCOCCOCCOCCOC[C@H]1OC[C@H](Nc2cncc(C(F)(F)F)n2)[C@@H](O)[C@H]1O [A26, 1-((2R,3R,4R,5S)-3,4-dihydroxy-5-((6-(trifluoromethyl)pyrazin-2-yl)amino)tetrahydro-2H-pyran-2-yl)-20-(1-((2R,3R,4R,5S)-3,4-dihydroxy-5-((6-(trifluoromethyl)pyrazin-2-yl)amino)tetrahydro-2H-pyran-2-yl)-15-oxo-2,5,8,11,18-pentaoxa-14-azanonadecan-19-yl)-15,22-dioxo-2,5,8,11,18,24,27,30-octaoxa-14,21-diazadotriacontan-32-oic acid] | < 100 nM
5 | CN(C[C@H]1OC[C@H](Nc2cncc(C(F)(F)F)n2)[C@@H](O)[C@H]1O)c1ccccc1 [A99, (2R,3R,4R,5S)-2-((methyl(phenyl)amino)methyl)-5-((6-(trifluoromethyl)pyrazin-2-yl)amino)tetrahydro-2H-pyran-3,4-diol] | < 1000 nM
6 | C=CCO[C@H]1O[C@H](Cn2cc(CO)nn2)[C@H](O)[C@H](O)[C@H]1Nc1nccc(C(F)(F)F)n1 [A64, (2R,3R,4R,5R,6S)-6-(allyloxy)-2-((4-(hydroxymethyl)-1H-1,2,3-triazol-1-yl)methyl)-5-((4-(trifluoromethyl)pyrimidin-2-yl)amino)tetrahydro-2H-pyran-3,4-diol] | 1000 to 10000 nM
7 | [N-]=[N+]=NCCOCCOCCOCCOC[C@H]1OC[C@H](Nc2cncc(C(F)(F)F)n2)[C@@H](O)[C@H]1O [A21, (2R,3R,4R,5S)-2-(13-azido-2,5,8,11-tetraoxatridecyl)-5-((6-(trifluoromethyl)pyrazin-2-yl)amino)tetrahydro-2H-pyran-3,4-diol] | 100 to 500 nM
8 | N#Cc1nc(N[C@H]2CO[C@H](CO)[C@H](O)[C@@H]2O)cc(C(F)(F)F)n1 [A79, 4-(((3S,4R,5R,6R)-4,5-dihydroxy-6-(hydroxymethyl)tetrahydro-2H-pyran-3-yl)amino)-6-(trifluoromethyl)pyrimidine-2-carbonitrile] | > 20000 nM
9 | CN(c1nccc(C(F)(F)F)n1)[C@H]1CO[C@H](CO)[C@H](O)[C@@H]1O [A60, (2R,3R,4R,5S)-2-(hydroxymethyl)-5-(methyl(4-(trifluoromethyl)pyrimidin-2-yl)amino)tetrahydro-2H-pyran-3,4-diol] | 1000 to 10000 nM
10 | C=CCO[C@H]1O[C@H](Cn2ccnn2)[C@H](O)[C@H](O)[C@H]1Nc1nccc(C(F)(F)F)n1 [A69, (2R,3R,4R,5R,6S)-2-((1H-1,2,3-triazol-1-yl)methyl)-6-(allyloxy)-5-((4-(trifluoromethyl)pyrimidin-2-yl)amino)tetrahydro-2H-pyran-3,4-diol] | < 1000 nM
11 | COc1cccc(-c2cn(C[C@H]3OC[C@H](Nc4nccc(C(F)(F)F)n4)[C@@H](O)[C@H]3O)nn2)c1 [A65, (2R,3R,4R,5S)-2-((4-(3-methoxyphenyl)-1H-1,2,3-triazol-1-yl)methyl)-5-((4-(trifluoromethyl)pyrimidin-2-yl)amino)tetrahydro-2H-pyran-3,4-diol] | < 1000 nM
12 | O=C(O)COCCOCC(=O)NC(COCCC(=O)NCCOCCOCCOCCOC[C@H]1OC[C@H](Nc2nccc(C(F)(F)F)n2)[C@@H](O)[C@H]1O)COCCC(=O)NCCOCCOCCOCCOC[C@H]1OC[C@H](Nc2nccc(C(F)(F)F)n2)[C@@H](O)[C@H]1O [A24, 1-((2R,3R,4R,5S)-3,4-dihydroxy-5-((4-(trifluoromethyl)pyrimidin-2-yl)amino)tetrahydro-2H-pyran-2-yl)-20-(1-((2R,3R,4R,5S)-3,4-dihydroxy-5-((4-(trifluoromethyl)pyrimidin-2-yl)amino)tetrahydro-2H-pyran-2-yl)-15-oxo-2,5,8,11,18-pentaoxa-14-azanonadecan-19-yl)-15,22-dioxo-2,5,8,11,18,24,27-heptaoxa-14,21-diazanonacosan-29-oic acid] | < 100 nM
13 | O=C(O)CC(=O)NC(COCCC(=O)NCCOCCOCCOCCOC[C@H]1OC[C@H](Nc2cncc(C(F)(F)F)n2)[C@@H](O)[C@H]1O)COCCC(=O)NCCOCCOCCOCCOC[C@H]1OC[C@H](Nc2cncc(C(F)(F)F)n2)[C@@H](O)[C@H]1O [A34, 1-((2R,3R,4R,5S)-3,4-dihydroxy-5-((6-(trifluoromethyl)pyrazin-2-yl)amino)tetrahydro-2H-pyran-2-yl)-20-(1-((2R,3R,4R,5S)-3,4-dihydroxy-5-((6-(trifluoromethyl)pyrazin-2-yl)amino)tetrahydro-2H-pyran-2-yl)-15-oxo-2,5,8,11,18-pentaoxa-14-azanonadecan-19-yl)-15,22-dioxo-2,5,8,11,18-pentaoxa-14,21-diazatetracosan-24-oic acid] | < 100 nM
14 | C[Si](C)(C)c1cn(C[C@H]2OC[C@H](Nc3nccc(C(F)(F)F)n3)[C@@H](O)[C@H]2O)nn1 [A66, (2R,3R,4R,5S)-5-((4-(trifluoromethyl)pyrimidin-2-yl)amino)-2-((4-(trimethylsilyl)-1H-1,2,3-triazol-1-yl)methyl)tetrahydro-2H-pyran-3,4-diol] | 1000 to 10000 nM
15 | NC[C@H]1OC[C@H](Nc2cncc(C(F)(F)F)n2)[C@@H](O)[C@H]1O [A89, (2R,3R,4R,5S)-2-(aminomethyl)-5-((6-(trifluoromethyl)pyrazin-2-yl)amino)tetrahydro-2H-pyran-3,4-diol] | < 1000 nM
16 | COCCO[C@@H]1O[C@H](CO)[C@H](O)[C@H](O)[C@H]1Nc1cncc(C(F)(F)F)n1 [A105, (2R,3R,4R,5R,6R)-2-(hydroxymethyl)-6-(2-methoxyethoxy)-5-((6-(trifluoromethyl)pyrazin-2-yl)amino)tetrahydro-2H-pyran-3,4-diol] | 1000 to 10000 nM
17 | OC[C@H]1O[C@H](OCC2CO2)[C@H](Nc2nccc(C(F)(F)F)n2)[C@@H](O)[C@H]1O (stereo partly drawn) [A76, (2R,3R,4R,5R,6S)-2-(hydroxymethyl)-6-(oxiran-2-ylmethoxy)-5-((4-(trifluoromethyl)pyrimidin-2-yl)amino)tetrahydro-2H-pyran-3,4-diol] | < 1000 nM
18 | COC(=N)c1cc(OC)nc(N[C@H]2CO[C@H](CO)[C@H](O)[C@@H]2O)n1 [A48, methyl 2-(((3S,4R,5R,6R)-4,5-dihydroxy-6-(hydroxymethyl)tetrahydro-2H-pyran-3-yl)amino)-6-methoxypyrimidine-4-carbimidate] | 1000 to 10000 nM
19 | C[C@@H]1O[C@H](CO)[C@H](O)[C@H](O)[C@H]1N=[N+]=[N-] [A50, (2R,3R,4R,5R,6S)-5-azido-2-(hydroxymethyl)-6-methyltetrahydro-2H-pyran-3,4-diol] | > 20000 nM
20 | C=CCO[C@H]1O[C@H](Cn2cc(-c3cccc(OC)c3)nn2)[C@H](O)[C@H](O)[C@H]1Nc1nccc(C(F)(F)F)n1 [A58, (2R,3R,4R,5R,6S)-6-(allyloxy)-2-((4-(3-methoxyphenyl)-1H-1,2,3-triazol-1-yl)methyl)-5-((4-(trifluoromethyl)pyrimidin-2-yl)amino)tetrahydro-2H-pyran-3,4-diol] | 1000 to 10000 nM
21 | O=C(NC[C@H]1OC[C@H](Nc2cncc(C(F)(F)F)n2)[C@@H](O)[C@H]1O)C12CC(C1)C2 [A102, N-(((2R,3R,4R,5S)-3,4-dihydroxy-5-((6-(trifluoromethyl)pyrazin-2-yl)amino)tetrahydro-2H-pyran-2-yl)methyl)bicyclo[1.1.1]pentane-1-carboxamide] | < 1000 nM
22 | OC[C@@]12CO[C@@H](O1)[C@H](Nc1ncc(C(F)(F)F)c(Cl)n1)[C@@H](O)[C@H]2O [A115, (1S,2R,3R,4R,5S)-4-((4-chloro-5-(trifluoromethyl)pyrimidin-2-yl)amino)-1-(hydroxymethyl)-6,8-dioxabicyclo[3.2.1]octane-2,3-diol] | < 1000 nM
23 | [N-]=[N+]=NC[C@H]1OC[C@H](Nc2nccc(C(F)(F)F)n2)[C@@H](O)[C@H]1O [A59, (2R,3R,4R,5S)-2-(azidomethyl)-5-((4-(trifluoromethyl)pyrimidin-2-yl)amino)tetrahydro-2H-pyran-3,4-diol] | < 1000 nM
24 | O[C@@H]1[C@H](O)[C@@H](Nc2cncc(C(F)(F)F)n2)CO[C@@H]1CNc1ccccc1 [A95, (2R,3R,4R,5S)-2-((phenylamino)methyl)-5-((6-(trifluoromethyl)pyrazin-2-yl)amino)tetrahydro-2H-pyran-3,4-diol] | 1000 to 10000 nM
